Tests used:
Ulcer (Shay rat) = experiment: Anti-ulcerative activity (Shay rat); type: in vivo; conditions: ip, read-out: % Inhibition of Ulcer Index; for inhibition in vivo at 10 mg/kg: 10 mg/Kg i.p.; for inhibition in vivo at 20 mg/kg: 20 mg/Kg i.p.
Source text: (§1) Data of the anti-ulcerative activity (Shay rat) and the acute toxicity (mouse) obtained with respect to several typical instances of compounds included in the scope of this invention are shown in Table 1.

Acute toxicity (mouse) = conditions: in vivo, ip
Source text: as §1

Row | Compound | inhibition in vivo at 10 mg/kg (Ulcer (Shay rat)) | inhibition in vivo at 20 mg/kg (Ulcer (Shay rat)) | LD50 (Acute toxicity (mouse))
1 | Nc1nc(N)nc(-c2cc(Cl)ccc2Cl)n1 [Example 1] | 49% | 100% | ~1600 mg/kg
2 | Nc1nc(N)nc(-c2cc(Cl)ccc2F)n1 [Example 2] | – | 89% | –
3 | Nc1nc(N)nc(-c2cc(Cl)ccc2Br)n1 [Example 3] | 33% | 80% | ~1000 mg/kg
4 | Nc1nc(N)nc(-c2cc(F)ccc2Br)n1 [Example 4] | – | 78% | ~500 mg/kg
5 | Nc1nc(N)nc(-c2cc(Br)ccc2Br)n1 [Example 5] | – | 100% | ~850 mg/kg
6 | Nc1nc(N)nc(-c2cc(Br)ccc2Cl)n1 [Example 6] | 35% | 86% | > 1000 mg/kg
7 | Nc1nc(N)nc(-c2ccc(Cl)cc2Cl)n1 [Example 7] | 77% | 100% | ~300 mg/kg
8 | Nc1nc(N)nc(-c2ccc(Cl)cc2Br)n1 [Example 8] | 76% | 96% | –
9 | Nc1nc(N)nc(-c2cccc(Cl)c2Cl)n1 [Example 10] | – | 76% | –
10 | Nc1nc(N)nc(-c2c(Cl)cccc2Cl)n1 [Example 11] | – | 54% | –
11 | Nc1nc(N)nc(-c2cc(Cl)cc(Cl)c2)n1 [Example 12] | – | 80% | –

Source: patent publication US3966728A, “Benzoguanamine derivatives” (Nippon Shinyaku Co., Ltd., priority 1974, dated 1976)
